# From ChEMBL document CHEMBL3430912, “GSK Tres Cantos Anti-Kinetoplastid Screening (TCAKS) Data”
# Assays:
# Trypanosoma cruzi [1] = experiment: GSK_TCAKS: pIC50 Trypanosoma cruzi viability assay using beta-GAL activity. This assay was run at single shot at 5uM compound concentration per well. The biological reagents consisted of NIH-3T3 host cells and trypomastigotes parasitic cells; both cell types were set to a 3.3 * 10^5 cells/mL dilution in assay DMEM by means of a CASY cell counter device using a 60um capillary. 6 uL of the mixture were dispensed per well (about 1 * 10^3 host-cells and 1 * 10^3 parasites) with a Multidrop Combi dispenser. […] In all wells, the percentage of DMSO never exceeded 0.5%. Plates incubated for four days at 37C, 5% CO2. The substrate used for the assay fluorescence intensity (FLINT) readout was resorufin-beta-D-galactopiranoside (Sigma-Aldrich) at 5uM per well. It was diluted in PBS supplemented with the soft detergent Igepal (Fluka).; type: functional, organism-based, Mus musculus; conditions: Tulahuen, NIH3T3
# Trypanosoma cruzi [2] = experiment: (§1) GSK_TCAKS: pIC50 Trypanosoma cruzi Imaging: Infected Cells. […] Cells were then washed once with PBS before infection. T. cruzi trypomastigotes, collected at days 5 to 8 after infection from LLC-MK2 parasite infected cultures, were allowed to swim out for 4h at 37C from a centrifuged pellet (2,500 rpm/10 min/room temperature). Trypomastigotes were then collected and counted in a CASY Cell Counter. Trypomastigotes, in supplemented DMEM, were added to H9c2 cultures in a multiplicity of infection of 1 and incubated for 18 h. Cells were washed once with PBS before incubation of the infected H9c2 monolayer with trypsin (Life-Technologies) to detach cells from the flask. Cells were counted in a CASY Cell Counter using a 150 um capillary and their density set at 5 * 10^4 cells per mL in supplemented assay DMEM. Infected H9c2 were dispensed into 384-well poly-lysine coated assay plates at 50uL per well using a Multidrop Combi dispenser. After seeding them, the plates were incubated at 37C, 5% CO2 for 72h. Cultures were then fixed and stained by addition of 50 uL of a solution containing 8% formaldehyde and 4 uM DRAQ5 DNA dye (BioStatus, UK) per well. […] Five images were collected per well for reliable statistical analysis. Automated image analysis was performed with a script developed on Acapella High Content Imaging and Analysis Software (PerkinElmer). Output: percentage of infected cells per well as a second infection marker.; type: functional, organism-based, Rattus norvegicus; conditions: H9c2, 4 h
# Trypanosoma cruzi [3] = experiment: GSK_TCAKS: pIC50 Trypanosoma cruzi Imaging: Amastigotes/Cell. […] Cells were then washed once with PBS before infection. T. cruzi trypomastigotes, collected at days 5 to 8 after infection from LLC-MK2 parasite infected cultures, were allowed to swim out for 4h at 37C from a centrifuged pellet (2,500 rpm/10 min/room temperature). Trypomastigotes were then collected and counted in a CASY Cell Counter. Trypomastigotes, in supplemented DMEM, were added to H9c2 cultures in a multiplicity of infection of 1 and incubated for 18 h. Cells were washed once with PBS before incubation of the infected H9c2 monolayer with trypsin (Life-Technologies) to detach cells from the flask. Cells were counted in a CASY Cell Counter using a 150 um capillary and their density set at 5 * 10^4 cells per mL in supplemented assay DMEM. Infected H9c2 were dispensed into 384-well poly-lysine coated assay plates at 50uL per well using a Multidrop Combi dispenser. After seeding them, the plates were incubated at 37C, 5% CO2 for 72h. Cultures were then fixed and stained by addition of 50 uL of a solution containing 8% formaldehyde and 4 uM DRAQ5 DNA dye (BioStatus, UK) per well. […] Five images were collected per well for reliable statistical analysis. Automated image analysis was performed with a script developed on Acapella High Content Imaging and Analysis Software (PerkinElmer). Output: number of amastigotes per cell as infection level measurement.; type: functional, organism-based, Rattus norvegicus; conditions: H9c2, 4 h
# Trypanosoma cruzi [4] = experiment: as §1, with “H2C9” for “Trypanosoma cruzi”, “H9c2 Host Cardiomyocytes.” for “Infected Cells.”, “Number” for “percentage”, “H9c2 Host Cardiomyocytes nuclei to determine drug-related cytotoxicity.” for “infected cells per well as a second infection marker.”; type: functional, organism-based, Rattus norvegicus; conditions: H9c2, 4 h
# Leishmania donovani [5] = experiment: GSK_TCAKS: pIC50 Leishmania donovani viability assay using fluorescence intensity. Assay plates (1536-well) were prepared by adding 30nL per well of compound. For single shot assay, the final compound concentration was 5uM. […] Briefly, eGFP LdBOB axenic amastigotes were harvested, fixed and counted in a CASY cell counter (Roche-Applied Science). A final concentration of 1.5 * 10^5 cells per well were prepared in amastigote media containing 500 U/mL penicillin/streptomycin (Invitrogen) and 6uL was dispensed to each experimental well using a Multidrop Combi dispenser (Thermo Scientific). 6uL of assay media was dispensed to control columns used as reference for 100% compound response. Following incubation for 72 h at 37C, 5% CO2, 2 uL of resazurin was added to each well at a final concentration of 0.5 mM in phosphate buffered saline (PBS) with IGEPAL (Sigma-Aldrich), 0.05% (v/v).; type: functional, organism-based
# Leishmania donovani [6] = experiment: GSK_TCAKS: pIC50 Leishmania donovani Imaging: Infected Macrophages. Assay plates (384-well) were prepared by adding 250nL of compound to each well. For single shot assay, the final compound concentration was 5 uM. […] Automated image analysis was performed with a script developed on Acapella High Content Imaging and Analysis Software (PerkinElmer). Output: Percent of infected macrophage cells were reported for each well.; type: functional, organism-based, Homo sapiens; conditions: THP-1
# Leishmania donovani [7] = experiment: GSK_TCAKS: pIC50 Leishmania donovani Imaging: Amastigotes/Macrophages. Assay plates (384-well) were prepared by adding 250nL of compound to each well. For single shot assay, the final compound concentration was 5 uM. […] Automated image analysis was performed with a script developed on Acapella High Content Imaging and Analysis Software (PerkinElmer). Output: Average number of amastigotes per macrophage cell were reported for each well.; type: functional, organism-based, Homo sapiens; conditions: THP-1
# Leishmania donovani [8] = experiment: GSK_TCAKS: pIC50 Leishmania donovani Imaging: THP-1 Host Macrophages. Assay plates (384-well) were prepared by adding 250nL of compound to each well. For single shot assay, the final compound concentration was 5 uM. […] Automated image analysis was performed with a script developed on Acapella High Content Imaging and Analysis Software (PerkinElmer). Output: THP-1 cell count were reported for each well.; type: functional, organism-based, Homo sapiens
# [9] = tested on: Trypanosoma brucei brucei; experiment: GSK_TCAKS: pIC50 Trypanosoma brucei viability assay using fluorescence intensity. Assay plates (1536-well) were prepared by dispensing 25nL of compound solution per well using an Echo acoustic dispenser (Labcyte).; type: functional, organism-based; conditions: Lister 427, 2 h
# [10] = tested on: Trypanosoma brucei brucei; experiment: GSK_TCAKS: pIC50 Trypanosoma brucei viability assay using luminiscence. Assay plates (1536-well) were prepared. T. brucei cultures were harvested and counted in a CASY cell counter. A parasite suspension was prepared at a final concentration of 5 * 10^4 cells/mL in complete HMI9 medium and 6uL was dispensed to all wells containing compounds using a Multidrop Combi dispenser. 6uL of HMI9 media with 0.4% DMSO were dispensed to control columns. Plates were incubated for 24 h at 37C, 5% CO2 then tempered for 10 min at room temperature. ATP content was quantified by adding 4 uL of CellTiter-Glo Reagent (Promega) according to the manufacturer's instructions. Luminescence was measured using a ViewLux.; type: functional, organism-based; conditions: Lister 427, CASY
# [11] = GSK_TCAKS: pIC50 HepG2 human cell line viability assay using luminiscence. […] Seeding density was checked to ensure that new mono-layers were not more than 50% confluent at the time of harvesting. Cell suspension was added to 500 mL of the same medium at a final density of 1.2 * 10^5 cells/mL. This cell suspension was dispensed (25 uL, 3000 cells per well) into 384-well clear-bottom plates using a Multidrop Combi dispenser. Prior to addition of the cell suspension, the screening compounds (250 nL) were pre-dispensed into the plates with an Echo liquid handler. Plates were incubated for 48 h at 37C, 5% CO2. After incubation, plates equilibrated at room temperature for 30 min before proceeding to develop the luminescent signal. The signal developer, CellTiter-Glo Reagent, was allowed to equilibrate at room temperature for 30 min and added to the plates (25uL per well) using a Multidrop Combi dispenser. Plates were left for 10 min at room temperature for stabilization and then read using a ViewLux.; type: toxicity, cell-based
# NIH3T3 = experiment: GSK_TCAKS: pIC50 NIH 3T3 cell line viability assay using luminiscence. Tissue culture surface treated assay plates (1536-well) were used. […] The 100% cells survival control was determined exposing the host-cells to a 0.5% DMSO concentration, whereas the 100% toxicity control was achieved by seeding the cells in presence of Amphotericin B at 50uM. Plates were incubated for four days at 37C, 5% CO2. The assay readout was developed by addition of 5uL of CellTiter-Glo Reagent following the manufacturer's instructions. Luminiscence was measured using a ViewLux.; type: functional, cell-based; conditions: Mus musculus, NIH3T3, 96 h
# [12] = molecular target: Sterol 14-alpha demethylase (Trypanosoma cruzi (strain CL Brener), UniProt Q7Z1V1); experiment: GSK_TCAKS: pIC50 CYP51 from Trypanosoma cruzi.; type: functional
# Sterol 14-alpha demethylase, sequence (Q7Z1V1 whole entry): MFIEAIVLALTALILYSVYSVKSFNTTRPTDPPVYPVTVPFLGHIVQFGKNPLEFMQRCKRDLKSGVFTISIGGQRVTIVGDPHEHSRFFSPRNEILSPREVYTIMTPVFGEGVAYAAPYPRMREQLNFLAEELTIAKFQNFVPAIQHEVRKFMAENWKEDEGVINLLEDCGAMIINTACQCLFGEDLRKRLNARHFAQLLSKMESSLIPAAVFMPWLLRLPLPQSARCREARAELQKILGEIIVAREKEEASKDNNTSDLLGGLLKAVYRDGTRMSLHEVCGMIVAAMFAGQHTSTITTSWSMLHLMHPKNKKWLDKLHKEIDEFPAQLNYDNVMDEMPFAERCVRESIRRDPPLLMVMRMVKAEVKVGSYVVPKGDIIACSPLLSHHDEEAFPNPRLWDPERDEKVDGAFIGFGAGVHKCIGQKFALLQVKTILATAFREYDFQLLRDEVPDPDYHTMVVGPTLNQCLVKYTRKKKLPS
SMILES,IC50 (Trypanosoma cruzi [1]),IC50 (Trypanosoma cruzi [2]),IC50 (Trypanosoma cruzi [3]),IC50 (Trypanosoma cruzi [4]),IC50 (Leishmania donovani [5]),IC50 (Leishmania donovani [6]),IC50 (Leishmania donovani [7]),IC50 (Leishmania donovani [8]),IC50 [9],IC50 [10],IC50 at 48 h [11],IC50 (NIH3T3),IC50 [12]
CN(Cc1ccc(C(N)=O)cc1)C(c1ccc(F)cc1)c1cccnc1 (stereo not given),0.158 µM,0.251 µM,0.2 µM,> 50.1 µM,> 50.1 µM,> 50.1 µM,> 50.1 µM,> 50.1 µM,> 39.8 µM,> 39.8 µM,> 100 µM,31.6 µM,0.1 µM
CC(Cn1ccnc1)NC(=O)COc1ccc(Cl)c(Cl)c1 (stereo not given),0.224 µM,0.501 µM,0.398 µM,> 50.1 µM,> 50.1 µM,> 50.1 µM,> 50.1 µM,> 50.1 µM,> 39.8 µM,> 39.8 µM,> 100 µM,> 50.1 µM,0.0631 µM
Cc1ccc(C)c(OC2CCN(C(=O)C(C)n3ccnc3)CC2)c1 (stereo not given),0.178 µM,0.398 µM,0.316 µM,> 50.1 µM,2.51 µM,> 50.1 µM,0.316 µM,> 50.1 µM,> 39.8 µM,> 39.8 µM,> 100 µM,> 50.1 µM,0.1 µM
Cc1[nH]c2ccccc2c(=O)c1Cc1c(C)[nH]c2ccccc2c1=O,2.51 µM,3.16 µM,1 µM,> 50.1 µM,20 µM,> 50.1 µM,> 50.1 µM,> 50.1 µM,> 39.8 µM,> 39.8 µM,> 100 µM,> 50.1 µM,> 100 µM
O=C(c1cnn(-c2ccccc2)n1)N1CCCC(n2ccnc2)C1 (stereo not given),0.0562 µM,0.0794 µM,0.0631 µM,> 50.1 µM,7.94 µM,> 50.1 µM,0.631 µM,> 50.1 µM,> 39.8 µM,31.6 µM,> 100 µM,20 µM,0.0794 µM
CNc1cc(C)nc(C2CN(C(=O)c3n[nH]c4ccccc34)CCO2)c1 (stereo not given),1.26 µM,2.51 µM,0.794 µM,> 50.1 µM,> 50.1 µM,> 50.1 µM,> 50.1 µM,> 50.1 µM,20 µM,> 39.8 µM,> 100 µM,> 50.1 µM,> 100 µM
Cc1ccccc1OCC(=O)N1CCCN(c2cccnn2)CC1,0.316 µM,0.631 µM,0.501 µM,> 50.1 µM,12.6 µM,> 50.1 µM,> 50.1 µM,> 50.1 µM,> 39.8 µM,> 39.8 µM,> 100 µM,50.1 µM,0.0794 µM
Cc1ccc(S(=O)(=O)Nc2ccc(CN3CCN(C(=O)c4cccc(C#N)c4)CC3)cc2)cc1,0.501 µM,0.501 µM,0.398 µM,> 50.1 µM,10 µM,> 50.1 µM,25.1 µM,> 50.1 µM,0.158 µM,0.316 µM,> 100 µM,> 50.1 µM,> 100 µM
Cc1nccn1C1CCCN(C(=O)c2cc3c(F)cccc3s2)C1 (stereo not given),0.631 µM,1 µM,0.794 µM,> 50.1 µM,5.01 µM,> 50.1 µM,> 50.1 µM,> 50.1 µM,> 39.8 µM,> 39.8 µM,> 100 µM,20 µM,50.1 µM
Cc1cc2cncn2c(C2CCCCN2C(=O)c2cccs2)n1 (stereo not given),0.0251 µM,0.0631 µM,0.0631 µM,> 50.1 µM,0.398 µM,> 50.1 µM,> 50.1 µM,> 50.1 µM,> 39.8 µM,> 39.8 µM,> 100 µM,> 50.1 µM,0.1 µM
